Data published in ChEMBL document CHEMBL1149624, “9-Substituted berberine derivatives as G-quadruplex stabilizing ligands in telomeric DNA” (Bioorg Med Chem, 2007).

Key:
Homo sapiens [1] = species on record: Homo sapiens; experiment: Binding affinity to human telo21 G-quadruplex DNA assessed as change in thermal stability in tris-HCl buffer at pH 7.4
[2] = Inhibition of amplification in human telo21 G-quadruplex DNA by PCR stop assay
Homo sapiens [3] = species on record: Homo sapiens; experiment: Binding affinity to human telo21 G-quadruplex DNA assessed as thermal stability in tris-HCl buffer at pH 7.4
[4] = Inhibition of telomerase expressed in MCF7 cells by TRAP assay; format: cell-based, Homo sapiens

Row | ΔTm (Homo sapiens [1]) [°C] | IC50 [2] [µM] | Tm (Homo sapiens [3]) [°C] | IC50 [4] [µM] | Structure (SMILES)
1 | 16.9 | 2.3 | 57 | 25 | CCN(CC)CCOc1c(OC)ccc2cc3[n+](cc12)CCc1cc2c(cc1-3)OCO2
2 | 11.6 | 2.3 | 51.7 | 25 | COc1ccc2cc3[n+](cc2c1OCCN(C(C)C)C(C)C)CCc1cc2c(cc1-3)OCO2
3 | 23 | 0.7 | 63.1 | 7.5 | COc1ccc2cc3[n+](cc2c1OCCCN1CCNCC1)CCc1cc2c(cc1-3)OCO2
4 | 3.9 | 2.1 | 44 | 75 | COc1ccc2cc3[n+](cc2c1OC)CCc1cc2c(cc1-3)OCO2 [BERBERINE CHLORIDE]
